Measurements: PubChem BioAssay (NCI)
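Cells were grown in 96-well plates and exposed to each compound for 48 hours at five concentrations; endpoints were interpolated linearly between bracketing concentrations, or set to the highest concentration if not reached. At the GI50, growth is halved. TGI is the concentration that stops growth completely.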

Assays:
Test in all cases: inhibition of tumour cell growth, NCI panel, 48 h
UACC-62 melanoma = system: UACC-62 melanoma
MALME-3M melanoma = system: MALME-3M melanoma
NCI-H23 lung = system: NCI-H23 lung
K-562 leukemia = system: K-562 leukemia
A498 renal = system: A498 renal
CCRF-CEM leukemia = system: CCRF-CEM leukemia
HS 578T breast = system: HS 578T breast
MOLT-4 leukemia = system: MOLT-4 leukemia
UO-31 renal = system: UO-31 renal
DU-145 prostate = system: DU-145 prostate
HCC-2998 colon = system: HCC-2998 colon
SN12C renal = system: SN12C renal
HOP-92 NSCLC = system: HOP-92 NSCLC
MDA-MB-435 = system: MDA-MB-435
CAKI-1 renal = system: CAKI-1 renal
SK-MEL-5 melanoma = system: SK-MEL-5 melanoma
OVCAR-5 ovarian = system: OVCAR-5 ovarian
NCI/ADR-RES ovarian = system: NCI/ADR-RES ovarian
SNB-75 CNS = system: SNB-75 CNS
U251 CNS = system: U251 CNS
HOP-62 NSCLC = system: HOP-62 NSCLC
OVCAR-8 ovarian = system: OVCAR-8 ovarian
SK-MEL-28 melanoma = system: SK-MEL-28 melanoma
HT29 colon = system: HT29 colon
T-47D breast = system: T-47D breast
SR leukemia = system: SR leukemia
HCT-15 colon = system: HCT-15 colon
SW-620 colon = system: SW-620 colon
RXF 393 renal = system: RXF 393 renal
SF-539 CNS = system: SF-539 CNS
786-0 renal = system: 786-0 renal
SK-OV-3 ovarian = system: SK-OV-3 ovarian
KM12 colon = system: KM12 colon
NCI-H460 lung = system: NCI-H460 lung
A549 NSCLC = system: A549 NSCLC
HCT-116 colon = system: HCT-116 colon
SF-268 CNS = system: SF-268 CNS
MCF7 breast = system: MCF7 breast
PC-3 prostate = system: PC-3 prostate
SK-MEL-2 melanoma = system: SK-MEL-2 melanoma
OVCAR-4 ovarian = system: OVCAR-4 ovarian
SNB-19 CNS = system: SNB-19 CNS
OVCAR-3 ovarian = system: OVCAR-3 ovarian
HL-60(TB) leukemia = system: HL-60(TB) leukemia
LOX IMVI melanoma = system: LOX IMVI melanoma
COLO 205 colon = system: COLO 205 colon
UACC-257 melanoma = system: UACC-257 melanoma
SF-295 CNS = system: SF-295 CNS
IGROV1 ovarian = system: IGROV1 ovarian
NCI-H522 lung = system: NCI-H522 lung
MDA-MB-231 breast = system: MDA-MB-231 breast
RPMI-8226 leukemia = system: RPMI-8226 leukemia
M14 melanoma = system: M14 melanoma
BT-549 breast = system: BT-549 breast
NCI-H226 lung = system: NCI-H226 lung
ACHN renal = system: ACHN renal

With `O=C(CI)OCC(COC(=O)CI)OC(=O)CI` the GI50 (UACC-62 melanoma) was 3.05 µM, the TGI (UACC-62 melanoma) was 12.3 µM and the GI50 (MALME-3M melanoma) was 1.6 µM. The TGI (MALME-3M melanoma) was 3.29 µM, the GI50 (NCI-H23 lung) was 5.36 µM and the TGI (NCI-H23 lung) was 19.6 µM. It also gave a GI50 (K-562 leukemia) of 2.39 µM, a TGI (K-562 leukemia) of 5.73 µM and a GI50 (A498 renal) of 10.9 µM. It also gave a TGI (A498 renal) of 26.7 µM, a GI50 (CCRF-CEM leukemia) of 1.73 µM and a TGI (CCRF-CEM leukemia) of 3.95 µM. The GI50 (HS 578T breast) was 4.88 µM, the TGI (HS 578T breast) was 27.7 µM and the GI50 (MOLT-4 leukemia) was 2.06 µM. For the same compound, the TGI (MOLT-4 leukemia) was 4.57 µM, the GI50 (UO-31 renal) was 1.39 µM and the TGI (UO-31 renal) was 2.84 µM. For the same compound, the GI50 (DU-145 prostate) was 8.62 µM, the TGI (DU-145 prostate) was 22.3 µM and the GI50 (HCC-2998 colon) was 16.3 µM. The TGI (HCC-2998 colon) was 31.3 µM, the GI50 (SN12C renal) was 4.01 µM and the TGI (SN12C renal) was 15 µM. The GI50 (HOP-92 NSCLC) was 1.86 µM, the TGI (HOP-92 NSCLC) was 4.03 µM and the GI50 (MDA-MB-435) was 10.6 µM. For the same compound, the TGI (MDA-MB-435) was 23.5 µM, the GI50 (CAKI-1 renal) was 1.96 µM and the TGI (CAKI-1 renal) was 3.91 µM. It also gave a GI50 (SK-MEL-5 melanoma) of 13.8 µM, a TGI (SK-MEL-5 melanoma) of 27.6 µM and a GI50 (OVCAR-5 ovarian) of 16.4 µM. For the same compound, the TGI (OVCAR-5 ovarian) was 32.8 µM, the GI50 (NCI/ADR-RES ovarian) was 18.4 µM and the TGI (NCI/ADR-RES ovarian) was 45.3 µM. For the same compound, the GI50 (SNB-75 CNS) was 13.7 µM, the TGI (SNB-75 CNS) was 29.3 µM and the GI50 (U251 CNS) was 11.9 µM. For the same compound, the TGI (U251 CNS) was 25.2 µM, the GI50 (HOP-62 NSCLC) was 10.8 µM and the TGI (HOP-62 NSCLC) was 27.8 µM. It also gave a GI50 (OVCAR-8 ovarian) of 2.53 µM, a TGI (OVCAR-8 ovarian) of 6.92 µM and a GI50 (SK-MEL-28 melanoma) of 5.54 µM. It also gave a TGI (SK-MEL-28 melanoma) of 16 µM, a GI50 (HT29 colon) of 2.92 µM and a TGI (HT29 colon) of 8.91 µM. For the same compound, the GI50 (T-47D breast) was 1.98 µM, the TGI (T-47D breast) was 4.46 µM and the GI50 (SR leukemia) was 2.36 µM. The TGI (SR leukemia) was 7.58 µM, the GI50 (HCT-15 colon) was 1.73 µM and the TGI (HCT-15 colon) was 3.61 µM. The GI50 (SW-620 colon) was 1.92 µM, the TGI (SW-620 colon) was 4 µM and the GI50 (RXF 393 renal) was 2.4 µM. The TGI (RXF 393 renal) was 7.55 µM, the GI50 (SF-539 CNS) was 13.7 µM and the TGI (SF-539 CNS) was 27.2 µM. It also gave a GI50 (786-0 renal) of 2.38 µM, a TGI (786-0 renal) of 6.28 µM and a GI50 (SK-OV-3 ovarian) of 17.3 µM. The TGI (SK-OV-3 ovarian) was 31.1 µM, the GI50 (KM12 colon) was 11.7 µM and the TGI (KM12 colon) was 26.8 µM. For the same compound, the GI50 (NCI-H460 lung) was 18 µM, the TGI (NCI-H460 lung) was 36.9 µM and the GI50 (A549 NSCLC) was 16.8 µM. It also gave a TGI (A549 NSCLC) of 35.5 µM, a GI50 (HCT-116 colon) of 1.67 µM and a TGI (HCT-116 colon) of 3.41 µM. The GI50 (SF-268 CNS) was 13.2 µM, the TGI (SF-268 CNS) was 29.5 µM and the GI50 (MCF7 breast) was 3.38 µM. For the same compound, the TGI (MCF7 breast) was 14.8 µM, the GI50 (PC-3 prostate) was 6.46 µM and the TGI (PC-3 prostate) was 20.7 µM. It also gave a GI50 (SK-MEL-2 melanoma) of 10.3 µM, a TGI (SK-MEL-2 melanoma) of 25.5 µM and a GI50 (OVCAR-4 ovarian) of 1.8 µM. It also gave a TGI (OVCAR-4 ovarian) of 4.3 µM, a GI50 (SNB-19 CNS) of 16.5 µM and a TGI (SNB-19 CNS) of 32.7 µM. For the same compound, the GI50 (OVCAR-3 ovarian) was 2.07 µM, the TGI (OVCAR-3 ovarian) was 3.94 µM and the GI50 (HL-60(TB) leukemia) was 1.99 µM. For the same compound, the TGI (HL-60(TB) leukemia) was 4.19 µM, the GI50 (LOX IMVI melanoma) was 1.03 µM and the TGI (LOX IMVI melanoma) was 3 µM. For the same compound, the GI50 (COLO 205 colon) was 1.88 µM, the TGI (COLO 205 colon) was 3.52 µM and the GI50 (UACC-257 melanoma) was 4.06 µM. The TGI (UACC-257 melanoma) was 15.4 µM, the GI50 (SF-295 CNS) was 16.3 µM and the TGI (SF-295 CNS) was 32 µM. It also gave a GI50 (IGROV1 ovarian) of 1.75 µM, a TGI (IGROV1 ovarian) of 3.5 µM and a GI50 (NCI-H522 lung) of 0.506 µM. For the same compound, the TGI (NCI-H522 lung) was 1.27 µM, the GI50 (MDA-MB-231 breast) was 9.3 µM and the TGI (MDA-MB-231 breast) was 24.6 µM. The GI50 (RPMI-8226 leukemia) was 2.22 µM, the TGI (RPMI-8226 leukemia) was 4.96 µM and the GI50 (M14 melanoma) was 7.57 µM. For the same compound, the TGI (M14 melanoma) was 22 µM, the GI50 (BT-549 breast) was 4.56 µM and the TGI (BT-549 breast) was 15.7 µM. For the same compound, the GI50 (NCI-H226 lung) was 15.6 µM, the TGI (NCI-H226 lung) was 38.8 µM and the GI50 (ACHN renal) was 1.84 µM. It also gave a TGI (ACHN renal) of 3.37 µM.
